Data published in ChEMBL document CHEMBL1148851, “Chemoenzymatic synthesis and in vitro studies on the hydrolysis of antimicrobial monoglycosyl diglycerides by pancreatic lipase” (2007).
Converted amounts (≈) assume the structure as drawn.

Tests used:
Assay type in all cases: functional
Staphylococcus aureus [1] = assay: Antibacterial activity against Staphylococcus aureus ATCC 25923
Staphylococcus aureus [2] = assay: Antibacterial activity against Staphylococcus aureus ATCC 105487
Enterococcus faecalis = assay: Antibacterial activity against Enterococcus faecalis ATCC 29212
Bacillus subtilis = assay: Antibacterial activity against Bacillus subtilis ATCC 6633
Escherichia coli = assay: Antibacterial activity against Escherichia coli ATCC 25922
Pseudomonas aeruginosa = assay: Antibacterial activity against Pseudomonas aeruginosa ATCC 27753
Staphylococcus aureus [3] = assay: Antibacterial activity against Staphylococcus aureus SA85 isolate
Staphylococcus aureus [4] = assay: Antibacterial activity against Staphylococcus aureus SA52 isolate
Staphylococcus aureus [5] = assay: Antibacterial activity against Staphylococcus aureus SA87 isolate
[6] = tested on: Mycobacterium tuberculosis; assay: Antibacterial activity against Mycobacterium tuberculosis H37Rv by dilution method
[7] = tested on: Mycobacterium tuberculosis; assay: Antibacterial activity against Mycobacterium tuberculosis H160 by dilution method
[8] = tested on: Mycobacterium tuberculosis; assay: Antibacterial activity against Mycobacterium tuberculosis H190 by dilution method
Candida albicans = assay: Antifungal activity against Candida albicans by dilution method
Kluyveromyces marxianus = assay: Antifungal activity against Candida pseudotropicalis by dilution method
[9] = Bacillus subtilis, ATCC 6633, read-out: MIC
[10] = Staphylococcus aureus, read-out: MIC
[11] = Mycobacterium tuberculosis, H37Rv, read-out: MIC
[12] = Mycobacterium tuberculosis, H160, read-out: MIC

Structure (SMILES)	MIC (Staphylococcus aureus [1]) [µg/mL]	MIC (Staphylococcus aureus [2]) [µg/mL]	MIC (Enterococcus faecalis) [µg/mL]	MIC (Bacillus subtilis; [9]) [µg/mL]	MIC (Escherichia coli) [µg/mL]	MIC (Pseudomonas aeruginosa) [µg/mL]	MIC (Staphylococcus aureus [3]) [µg/mL]	MIC (Staphylococcus aureus [4]) [µg/mL]	MIC (Staphylococcus aureus [5]; [10]) [µg/mL]	MIC [6, 11] [µg/mL]	MIC [7, 12] [µg/mL]	MIC [8] [µg/mL]	MIC (Candida albicans) [µg/mL]	MIC (Kluyveromyces marxianus) [µg/mL]	MIC (Bacillus subtilis) [µg/mL]	MIC (Staphylococcus aureus [5]) [µg/mL]	MIC [6] [µg/mL]	MIC [7] [µg/mL]
CCCCCCCC/C=C\CCCCCCCC(=O)OC(COC(=O)CCCCCCCCC)CO[C@@H]1O[C@H](CO)[C@@H](O)[C@H](O)[C@H]1O (stereo not given in full)	8 (≈ 11.9 µM)	> 128	> 128	32 (≈ 47.6 µM)	> 128	> 128	128 (≈ 190 µM)	> 128	> 128	> 128	> 128	> 128	> 128	> 128	–	–	–	–
CCCCC/C=C\C/C=C\CCCCCCCC(=O)OC(COC(=O)CCCCCCCCC)CO[C@@H]1O[C@H](CO)[C@@H](O)[C@H](O)[C@H]1O (stereo not given in full)	> 128	32 (≈ 47.7 µM)	64 (≈ 95.4 µM)	128 (≈ 191 µM)	> 128	> 128	32 (≈ 47.7 µM)	> 128	32 (≈ 47.7 µM)	> 128	> 128	> 128	> 128	> 128	–	–	–	–
CCCCCCCC/C=C\CCCCCCCC(=O)OC(COC(=O)CCCCCCC)CO[C@@H]1O[C@H](CO)[C@H](O)[C@H](O)[C@H]1O (stereo not given in full)	> 128	> 128	> 128	128 (≈ 198 µM)	> 128	> 128	> 128	> 128	64 (≈ 99.2 µM)	128 (≈ 198 µM)	64 (≈ 99.2 µM)	64 (≈ 99.2 µM)	> 128	> 128	–	–	–	–
CCCCCCCC(=O)OCC(CO[C@@H]1O[C@H](CO)[C@H](O)[C@H](O)[C@H]1O)OC(=O)CCCCCCC (stereo not given in full)	32 (≈ 63.2 µM)	32 (≈ 63.2 µM)	32 (≈ 63.2 µM)	32 (≈ 63.2 µM)	> 128	> 128	32 (≈ 63.2 µM)	> 128	32 (≈ 63.2 µM)	128 (≈ 253 µM)	128 (≈ 253 µM)	128 (≈ 253 µM)	> 128	> 128	–	–	–	–
CCCCCCCCCC(=O)OCC(CO[C@@H]1O[C@H](CO)[C@H](O)[C@H](O)[C@H]1O)OC(=O)CCCCCCCCC (stereo not given in full)	32 (≈ 56.9 µM)	> 128	> 128	> 128	> 128	> 128	32 (≈ 56.9 µM)	> 128	128 (≈ 227 µM)	128 (≈ 227 µM)	64 (≈ 114 µM)	64 (≈ 114 µM)	> 128	> 128	–	–	–	–
CCCCCCCCCCCCCC(=O)OCC(CO[C@@H]1O[C@H](CO)[C@H](O)[C@H](O)[C@H]1O)OC(=O)CCCCCCCCCCCCC (stereo not given in full)	> 128	> 128	> 128	> 128	> 128	> 128	> 128	> 128	> 128	> 128	> 128	> 128	> 128	> 128	–	–	–	–
CCCCCCCCCCCCCCCCCC(=O)OCC(CO[C@@H]1O[C@H](CO)[C@H](O)[C@H](O)[C@H]1O)OC(=O)CCCCCCCCCCCCCCCCC (stereo not given in full)	> 128	> 128	> 128	> 128	> 128	> 128	> 128	> 128	> 128	> 128	> 128	> 128	> 128	> 128	–	–	–	–
CCCCCCCC/C=C\CCCCCCCC(=O)OC(COC(=O)CCCCCCC)CO[C@@H]1O[C@H](CO)[C@@H](O)[C@H](O)[C@H]1O (stereo not given in full)	> 128	> 128	> 128	128 (≈ 198 µM)	> 128	> 128	> 128	> 128	64 (≈ 99.2 µM)	64 (≈ 99.2 µM)	64 (≈ 99.2 µM)	64 (≈ 99.2 µM)	> 128	> 128	–	–	–	–
CC/C=C\C/C=C\C/C=C\CCCCCCCC(=O)OC(COC(=O)CCCCCCC)CO[C@@H]1O[C@H](CO)[C@@H](O)[C@H](O)[C@H]1O (stereo not given in full)	> 128	> 128	> 128	128 (≈ 200 µM)	> 128	> 128	> 128	> 128	64 (≈ 99.9 µM)	64 (≈ 99.9 µM)	128 (≈ 200 µM)	64 (≈ 99.9 µM)	> 128	> 128	–	–	–	–
CCCCC/C=C\C/C=C\CCCCCCCC(=O)OC(COC(=O)CCCCCCC)CO[C@@H]1O[C@H](CO)[C@H](O)[C@H](O)[C@H]1O (stereo not given in full)	> 128	> 128	> 128	128 (≈ 199 µM)	> 128	> 128	> 128	> 128	128 (≈ 199 µM)	64 (≈ 99.6 µM)	64 (≈ 99.6 µM)	128 (≈ 199 µM)	> 128	> 128	–	–	–	–
CC/C=C\C/C=C\C/C=C\CCCCCCCC(=O)OC(COC(=O)CCCCCCC)CO[C@@H]1O[C@H](CO)[C@H](O)[C@H](O)[C@H]1O (stereo not given in full)	> 128	> 128	> 128	128 (≈ 200 µM)	> 128	> 128	> 128	> 128	64 (≈ 99.9 µM)	128 (≈ 200 µM)	128 (≈ 200 µM)	128 (≈ 200 µM)	> 128	> 128	–	–	–	–
CCCCCCCCCCCC(=O)OCC(CO[C@@H]1O[C@H](CO)[C@H](O)[C@H](O)[C@H]1O)OC(=O)CCCCCCCCCCC (stereo not given in full)	> 128	> 128	> 128	> 128	> 128	> 128	> 128	> 128	> 128	> 128	> 128	> 128	> 128	> 128	–	–	–	–
CCCCC/C=C\C/C=C\CCCCCCCC(=O)OC(COC(=O)CCCCCCCCC)CO[C@@H]1O[C@H](CO)[C@H](O)[C@H](O)[C@H]1O (stereo not given in full)	> 128	64 (≈ 95.4 µM)	128 (≈ 191 µM)	128 (≈ 191 µM)	> 128	> 128	64 (≈ 95.4 µM)	> 128	64 (≈ 95.4 µM)	> 128	> 128	> 128	> 128	> 128	–	–	–	–
CCCCCCCC/C=C\CCCCCCCC(=O)OC(COC(=O)CCCCCCCCC)CO[C@@H]1O[C@H](CO)[C@H](O)[C@H](O)[C@H]1O (stereo not given in full)	128 (≈ 190 µM)	> 128	> 128	32 (≈ 47.6 µM)	> 128	> 128	128 (≈ 190 µM)	> 128	> 128	> 128	> 128	> 128	> 128	> 128	–	–	–	–
CC/C=C\C/C=C\C/C=C\CCCCCCCC(=O)OC(COC(=O)CCCCCCCCC)CO[C@@H]1O[C@H](CO)[C@H](O)[C@H](O)[C@H]1O (stereo not given in full)	> 128	> 128	> 128	> 128	> 128	> 128	64 (≈ 95.7 µM)	> 128	32 (≈ 47.8 µM)	> 128	> 128	> 128	> 128	> 128	–	–	–	–
CC/C=C\C/C=C\C/C=C\CCCCCCCC(=O)OC(COC(=O)CCCCCCCCC)CO[C@@H]1O[C@H](CO)[C@@H](O)[C@H](O)[C@H]1O (stereo not given in full)	> 128	> 128	> 128	> 128	> 128	> 128	64 (≈ 95.7 µM)	> 128	32 (≈ 47.8 µM)	> 128	> 128	> 128	> 128	> 128	–	–	–	–
CCCCCCCC/C=C\CCCCCCCC(=O)OCC(CO[C@@H]1O[C@H](CO)[C@H](O)[C@H](O)[C@H]1O)OC(=O)CCCCCCC/C=C\CCCCCCCC (stereo not given in full)	> 128	> 128	> 128	> 128	> 128	> 128	> 128	> 128	> 128	> 128	> 128	> 128	> 128	> 128	–	–	–	–
CCCCC/C=C\C/C=C\CCCCCCCC(=O)OC(COC(=O)CCCCCCC)CO[C@@H]1O[C@H](CO)[C@@H](O)[C@H](O)[C@H]1O (stereo not given in full)	> 128	> 128	> 128	128 (≈ 199 µM)	> 128	> 128	> 128	> 128	64 (≈ 99.6 µM)	64 (≈ 99.6 µM)	128 (≈ 199 µM)	64 (≈ 99.6 µM)	> 128	> 128	–	–	–	–
CCCCC/C=C\C/C=C\CCCCCCCC(=O)OCC(CO[C@@H]1O[C@H](CO)[C@@H](O)[C@H](O)[C@H]1O)OC(=O)CCCCCCC/C=C\C/C=C\CCCCC (stereo in doubt; 9g)	–	–	–	–	–	–	–	–	–	64 (≈ 82.1 µM)	64 (≈ 82.1 µM)	128 (≈ 164 µM)	–	–	128 (≈ 164 µM)	64 (≈ 82.1 µM)	–	–
CCCCC/C=C\C/C=C\CCCCCCCC(=O)OCC(CO[C@@H]1O[C@H](CO)[C@@H](O)[C@H](O)[C@H]1O)OC(=O)CCCCCCC/C=C\C/C=C\CCCCC (stereo in doubt; 9q)	> 128	> 128	> 128	128 (≈ 164 µM)	> 128	> 128	> 128	> 128	128 (≈ 164 µM)	–	–	–	> 128	> 128	–	–	128 (≈ 164 µM)	128 (≈ 164 µM)
